# From patent US20100129434A1, “COMPOSITIONS AND METHODS FOR THE TREATMENT OF MUCORMYCOSIS AND OTHER FUNGAL DISEASES” (priority 2006, published 2010)
# How the values were obtained:
# [1] = Deferasirox toxicity studies in neutropenic mice; assay type: in vivo; details: uninfected neutropenic mice
# Method: Toxicity of deferasirox in neutropenic mice was evaluated. Mice were rendered neutropenic as above and treated with deferasirox at 10 mg/kg twice every day or every other day for 7 days. Mice from three different groups (i.e. placebo, deferasirox daily treatment, and deferasirox every other day treatment) were sacrificed on day 3 or 8 and blood was collected and sent for Charles River Laboratories for evaluation. Additionally, bone marrow smears were prepared from femurs, and tissues were collected, preserved in zinc-buffered formalin, embedded in paraffin, sectioned at 5 μm, and stained with hematoxylin and eosin. The resulting slides were examined by a board-certified veterinary pathologist at Charles River Laboratories.
# Because deferasirox dosing every other day was optimal in the neutropenic model, we sought to identify any potential toxicity caused by daily dosing of deferasirox in neutropenic mice. Mice were made neutropenic with cyclophosphamide as above, but were not infected. The mice were treated with deferasirox 10 mg/kg twice daily for seven days, 10 mg/kg twice every other day for 4 doses, or placebo. Terminal bleeds were performed on day 3 or day 8 to measure complete blood count, serum chemistries, and liver function tests. […]
# rFTR1 promoter = assay: Green fluorescent protein (GFP) reporter assay, rFTR1 promoter; assay type: cell-based, Rhizopus oryzae; details: R. oryzae M16 transformed with rFTR1p::GFP
# Excerpt: A 1.5 kb fragment upstream of the rFTR10RF was PCR amplified using the following primer pair: sense primer 5′-[…]-3′; and anti-sense primer 5′-[…]-3′. A 2.1 kb fragment containing the constitutively expressed actin promoter was also PCR amplified to use as a control using the following primer pair: sense 5′[…]-3′; and anti-sense:5′ […]-3. Amplified fragments were ligated into the XbaI and EagI sites of plasmid pyr225b (35). GFP was amplified from pGFPB21-43.31 (36), and cloned downstream of either promoter into EagI-SacI sites of the plasmid downstream of either promoter. Finally, a 2.1 kb fragment representing the ORF of pyrF and its native promoter was cloned into SpeI-ClaI sites of the plasmid to serve as a selection marker. […] Purified transformants selected on uracil negative plates were analyzed by Southern blotting.
# Expression of rFTR1p and ACT1p were studied in transformants grown in iron-replete medium (i.e. YNB+CSM-URA) or iron-depleted conditions (i.e. YNB+CSM-URA supplemented with 2 mM deferasirox). […] Additionally, a 1 ml sample from each culture was also used to quantify the fluorescence emission using a FACSCaliber™ (Becton Dickinson®) instrument equipped with an argon laser emitting at 488 nm. Spores were gated by forward and side scatter and fluorescence measured in FL1. […]
# R. oryzae = assay: Tissue fungal burden of DKA mice infected with R. oryzae; assay type: in vivo, BALB/c male mice
# Method: Briefly, for in vivo infection, BALB/c male mice (>20 g) were rendered diabetic with a single i.p. injection of 210 mg/kg streptozotocin in 0.2 ml citrate buffer 10 days prior to fungal challenge. […] Mice were infected through the tail vein with the appropriate inocula of R. oryzae. To confirm the inocula, dilutions were streaked on PDA plates and colonies were counted following a 24 h incubation period at room temperature. The primary efficacy endpoint was time to death. As a secondary endpoint, brain fungal burden (the primary target organ) was determined by homogenization by rolling a pipette on organs placed in Whirl-Pak bags (Nasco, Fort Atkinson, Wis.) containing 2 ml saline. The homogenate was serially diluted in 0.85% saline and then quantitatively cultured on PDA. Values were expressed as log 10 cfu g^−1 tissue. All procedures involving mice were approved by the institutional animal use and care committee, following the National Institutes of Health guidelines for animal housing and care.
# For in vivo infection, BALB/c male mice (>20 g) were rendered diabetic with a single i.p. injection of 210 mg/kg streptozotocin in 0.2 ml citrate buffer 10 days prior to fungal challenge. […] For neutropenic mouse model, mice were injected with a single i.p. dose of 200 mg/kg cyclolphosphamide (Bristol Myer Squibb) 2 days prior to infection with R. oryzae. […] Mice were infected through the tail vein with the appropriate inocula of R. oryzae. To confirm the inocula, dilutions were streaked on PDA plates containing 0.1% triton and colonies were counted following a 24 h incubation period at 37° C. The primary efficacy endpoint was time to death. As a secondary endpoint, brain fungal burden (the primary target organ) was determined by homogenization by rolling a pipette on organs placed in Whirl-Pak™ bags (Nasco®, Fort Atkinson, Wis.) containing 1 ml saline. The homogenate was serially diluted in 0.85% saline and then quantitatively cultured on PDA. Values were expressed as log10 cfu g−1 tissue. Finally, for histopathological analysis, infected organs were collected from mice and fixed in 10% zinc formalin. Fixed tissues were embedded in paraffin, and […] sections were stained with haematoxylin and eosin for light microscopy examination. All procedures involving mice were approved by the institutional animal use and care committee, following the National Institutes of Health guidelines for animal housing and care.
# [2] = 4.2×10^4 spores R. oryzae 99-892, 10 mg/kg bid, 3 days, vs placebo or deferasirox plus saturating ferric chloride
smiles,measurement,setting,value
"O=C(O)c1ccc(-n2nc(-c3ccccc3O)nc2-c2ccccc2O)cc1 [Deferasirox, 4-[3,5-Bis(2-hydroxyphenyl)-1H-1,2,4-triazol-1-yl]-benzoic acid]","white cell, neutrophil, platelet counts, hemoglobin, serum chemistries, liver function tests versus placebo","[1]; 10 mg/kg twice daily 7 days or twice every other day 4 doses, day 3 or 8",No differences
same,organ toxicity by histopathology,[1]; 10 mg/kg twice daily or twice every other day,no organ-specific toxicity attributable to deferasirox
same,GFP fluorescence by confocal microscopy,rFTR1 promoter; 2 mM deferasirox,fluorescent
same,fluorescent spores by flow cytometry,"rFTR1 promoter; 2 mM deferasirox overnight, iron-replete less than 1%",43%
same,decrease in brain fungal burden,R. oryzae; [2],greater than 10 fold
same,decrease in kidney fungal burden,R. oryzae; [2],greater than 10 fold
same,brain CFUs compared to placebo,"R. oryzae; R. oryzae 99-880, monotherapy, organs harvested day 3",neither drug alone was able to reduce brain CFUs
